Experimental data taken from ChEMBL document CHEMBL1201862, “PubChem BioAssay data set” (2004).
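Method: 48-hour compound exposure of cells in 96-well plates, five concentrations, linear interpolation of endpoints. Here, GI50 denotes the concentration required for 50% inhibition of growth.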 Active and inactive are the calls of the source. Cut-off read from the data, not from the text of the source: active = GI50 up to about 1.1 µM and inactive = higher.

Legend:
Experiment in all cases: inhibition of tumour cell growth, NCI panel, 48 h
T47D = tested on: T47D
IGROV-1 = tested on: IGROV-1
SF-295 = tested on: SF-295
SNB-19 = tested on: SNB-19
MDA-MB-231 = tested on: MDA-MB-231
SK-MEL-28 = tested on: SK-MEL-28
OVCAR-3 = tested on: OVCAR-3
HCC 2998 = tested on: HCC 2998
BT-549 = tested on: BT-549
UACC-257 = tested on: UACC-257
MCF7 = tested on: MCF7
HCT-15 = tested on: HCT-15
SK-MEL-5 = tested on: SK-MEL-5
DU-145 = tested on: DU-145
CCRF-CEM = tested on: CCRF-CEM
Malme-3M = tested on: Malme-3M
786-0 = tested on: 786-0
SF-268 = tested on: SF-268
SN12C = tested on: SN12C

Compound	GI50 (T47D)	GI50 (IGROV-1)	GI50 (SF-295)	GI50 (SNB-19)	GI50 (MDA-MB-231)	GI50 (SK-MEL-28)	GI50 (OVCAR-3)	GI50 (HCC 2998)	GI50 (BT-549)	GI50 (UACC-257)	GI50 (MCF7)	GI50 (HCT-15) [µM]	GI50 (SK-MEL-5)	GI50 (DU-145)	GI50 (CCRF-CEM)	GI50 (Malme-3M)	GI50 (786-0)	GI50 (SF-268)	GI50 (SN12C)
CCOC(C[Se]CC(OCC)OCC)OCC	> 100 µM (inactive)	24.1 µM (inactive)	26.1 µM (inactive)	48.8 µM (inactive)	52.5 µM (inactive)	49.4 µM (inactive)	> 100 µM (inactive)	> 100 µM (inactive)	31.8 µM (inactive)	85.1 µM (inactive)	48.3 µM (inactive)	57.9	15.7 µM (inactive)	37.5 µM (inactive)	33.4 µM (inactive)	61.5 µM (inactive)	> 100 µM (inactive)	–	–
COc1cc([C@@H]2C3C(=O)c4ccccc4C3[C@@H](c3cc(OC)c(OC)c(OC)c3)C23Cc2ccccc2C3=O)cc(OC)c1OC (stereo not given in full)	> 100 µM (inactive)	24.3 µM (inactive)	> 100 µM (inactive)	> 100 µM (inactive)	> 100 µM (inactive)	> 100 µM (inactive)	> 100 µM (inactive)	> 100 µM (inactive)	> 100 µM (inactive)	> 100 µM (inactive)	15.4 µM (inactive)	> 100	> 100 µM (inactive)	> 100 µM (inactive)	> 100 µM (inactive)	> 100 µM (inactive)	> 100 µM (inactive)	> 100 µM (inactive)	> 100 µM (inactive)
Cc1c2ccccc2c(C)n2c1nc1cc(Cl)c(Cl)cc12	> 10 µM (inactive)	> 10 µM (inactive)	8.65 µM (inactive)	> 10 µM (inactive)	> 10 µM (inactive)	> 10 µM (inactive)	0.163 µM (active)	> 10 µM (inactive)	> 10 µM (inactive)	> 10 µM (inactive)	1.59 µM (inactive)	> 10	> 10 µM (inactive)	> 10 µM (inactive)	> 10 µM (inactive)	0.166 µM (active)	6.47 µM (inactive)	> 10 µM (inactive)	> 10 µM (inactive)
CC1(C)OC(=C(C#N)C#N)C(C#N)=C1/C=C/c1ccncc1	2.48 µM (inactive)	2.17 µM (inactive)	2.24 µM (inactive)	2.59 µM (inactive)	2.16 µM (inactive)	2.39 µM (inactive)	1.84 µM (inactive)	4.9 µM (inactive)	1.65 µM (inactive)	2.95 µM (inactive)	2.04 µM (inactive)	2.03	4.37 µM (inactive)	2.53 µM (inactive)	0.851 µM (active)	2.61 µM (inactive)	2.03 µM (inactive)	2.21 µM (inactive)	2.39 µM (inactive)
CCOC(=O)C(NC(=O)OCc1ccccc1)C(=O)O (stereo not given)	> 100 µM (inactive)	> 100 µM (inactive)	> 100 µM (inactive)	> 100 µM (inactive)	> 100 µM (inactive)	> 100 µM (inactive)	> 100 µM (inactive)	> 100 µM (inactive)	> 100 µM (inactive)	> 100 µM (inactive)	> 100 µM (inactive)	> 100	> 100 µM (inactive)	> 100 µM (inactive)	> 100 µM (inactive)	> 100 µM (inactive)	> 100 µM (inactive)	> 100 µM (inactive)	> 100 µM (inactive)
O=C(c1ccccn1)c1nnn2ccccc12	> 100 µM (inactive)	> 100 µM (inactive)	> 100 µM (inactive)	> 100 µM (inactive)	> 100 µM (inactive)	> 100 µM (inactive)	> 100 µM (inactive)	> 100 µM (inactive)	> 100 µM (inactive)	> 100 µM (inactive)	> 100 µM (inactive)	> 100	> 100 µM (inactive)	> 100 µM (inactive)	> 100 µM (inactive)	> 100 µM (inactive)	> 100 µM (inactive)	> 100 µM (inactive)	> 100 µM (inactive)
O=c1ccc(=O)n(-c2ccccc2)[nH]1	> 100 µM (inactive)	> 100 µM (inactive)	> 100 µM (inactive)	> 100 µM (inactive)	> 100 µM (inactive)	> 100 µM (inactive)	> 100 µM (inactive)	> 100 µM (inactive)	> 100 µM (inactive)	> 100 µM (inactive)	> 100 µM (inactive)	> 100	> 100 µM (inactive)	> 100 µM (inactive)	> 100 µM (inactive)	> 100 µM (inactive)	> 100 µM (inactive)	> 100 µM (inactive)	> 100 µM (inactive)
COCN1C(=O)[C@@H]2C[C@@H](O)CN2C(=O)c2ccccc21	> 100 µM (inactive)	> 100 µM (inactive)	> 100 µM (inactive)	> 100 µM (inactive)	> 100 µM (inactive)	> 100 µM (inactive)	–	> 100 µM (inactive)	> 100 µM (inactive)	> 100 µM (inactive)	> 100 µM (inactive)	> 100	> 100 µM (inactive)	> 100 µM (inactive)	> 100 µM (inactive)	> 100 µM (inactive)	> 100 µM (inactive)	> 100 µM (inactive)	> 100 µM (inactive)
CC(C)(C)OC(=O)C1CCC/C1=N/Nc1ccc([N+](=O)[O-])cc1[N+](=O)[O-] (stereo not given)	16.3 µM (inactive)	25.5 µM (inactive)	25 µM (inactive)	41.5 µM (inactive)	20 µM (inactive)	54.7 µM (inactive)	46.6 µM (inactive)	42.9 µM (inactive)	24.9 µM (inactive)	–	30 µM (inactive)	39.4	13.9 µM (inactive)	47.2 µM (inactive)	19.7 µM (inactive)	65.5 µM (inactive)	23 µM (inactive)	41.8 µM (inactive)	40.7 µM (inactive)
N#CC1Cc2cc3c(cc21)OCO3 (stereo not given)	> 100 µM (inactive)	> 100 µM (inactive)	> 100 µM (inactive)	> 100 µM (inactive)	> 100 µM (inactive)	> 100 µM (inactive)	> 100 µM (inactive)	> 100 µM (inactive)	> 100 µM (inactive)	> 100 µM (inactive)	> 100 µM (inactive)	> 100	> 100 µM (inactive)	> 100 µM (inactive)	> 100 µM (inactive)	> 100 µM (inactive)	> 100 µM (inactive)	–	> 100 µM (inactive)
OCCN(C1=NCCN1)/[N+](=C\c1ccccn1)[CH-]c1ccccn1	> 100 µM (inactive)	> 100 µM (inactive)	> 100 µM (inactive)	–	> 100 µM (inactive)	> 100 µM (inactive)	> 100 µM (inactive)	> 100 µM (inactive)	> 100 µM (inactive)	> 100 µM (inactive)	> 100 µM (inactive)	> 100	> 100 µM (inactive)	> 100 µM (inactive)	> 100 µM (inactive)	> 100 µM (inactive)	> 100 µM (inactive)	> 100 µM (inactive)	> 100 µM (inactive)
O=c1[nH]nc(Cc2ccccc2)n1/N=C/c1c(O)ccc2ccccc12	20.2 µM (inactive)	21.2 µM (inactive)	26.9 µM (inactive)	18.4 µM (inactive)	19.7 µM (inactive)	–	17.1 µM (inactive)	33.4 µM (inactive)	82.4 µM (inactive)	35.3 µM (inactive)	37.9 µM (inactive)	51.6	18.6 µM (inactive)	57 µM (inactive)	43.6 µM (inactive)	20.9 µM (inactive)	16.7 µM (inactive)	24.6 µM (inactive)	41.1 µM (inactive)
Cc1ccc(C2(c3ccc(C)cc3)SC(=C(C#N)C#N)c3ccccc32)cc1	> 100 µM (inactive)	> 100 µM (inactive)	97.9 µM (inactive)	> 100 µM (inactive)	> 100 µM (inactive)	> 100 µM (inactive)	> 100 µM (inactive)	89.7 µM (inactive)	> 100 µM (inactive)	–	81.1 µM (inactive)	22.5	> 100 µM (inactive)	> 100 µM (inactive)	58.3 µM (inactive)	87.9 µM (inactive)	> 100 µM (inactive)	> 100 µM (inactive)	> 100 µM (inactive)
Cc1ccc(S(=O)(=O)N2CCCCN(S(=O)(=O)c3ccc(C)cc3)Cc3ccccc3OCCOCCOc3c4cccc3Cc3cccc5c3OCCOCCOc3ccccc3CN(S(=O)(=O)c3ccc(C)cc3)CCCN(S(=O)(=O)c3ccc(C)cc3)Cc3ccccc3OCCOCCOc3c(cccc3C4)Cc3cccc(c3OCCOCCOc3ccccc3C2)C5)cc1	> 100 µM (inactive)	> 100 µM (inactive)	> 100 µM (inactive)	> 100 µM (inactive)	> 100 µM (inactive)	–	> 100 µM (inactive)	> 100 µM (inactive)	> 100 µM (inactive)	> 100 µM (inactive)	> 100 µM (inactive)	> 100	> 100 µM (inactive)	> 100 µM (inactive)	> 100 µM (inactive)	> 100 µM (inactive)	> 100 µM (inactive)	> 100 µM (inactive)	> 100 µM (inactive)
COc1ccc(OCc2nc3cc(C(F)(F)F)ccc3nc2-c2ccccc2)cc1	13.5 µM (inactive)	–	> 100 µM (inactive)	> 100 µM (inactive)	27.4 µM (inactive)	> 100 µM (inactive)	> 100 µM (inactive)	> 100 µM (inactive)	> 100 µM (inactive)	> 100 µM (inactive)	> 100 µM (inactive)	> 100	> 100 µM (inactive)	> 100 µM (inactive)	> 100 µM (inactive)	> 100 µM (inactive)	> 100 µM (inactive)	> 100 µM (inactive)	> 100 µM (inactive)
